Results on three compounds are retold here after patent US20040116436A1, “Treatment of dementia and parkinson's disease” (priority 2002, published 2004).

Like-named read-outs stand apart in the source and are kept apart here.

For series [1], the system named is dopaminergic neurons in the substantia nigra.
On series [2], the source says: 30 C57B1/B6 type mice (8-12 weeks old) are allowed to acclimate for 12-14 days before experimental use.
The target of a further series is alpha 1A receptor (Homo sapiens, UniProt P35348). The conditions noted are these: RSAT assay; alpha 2 subtypes versus alpha 1A.
In series [3] the test system is dopaminergic neurons in the ventral tegmental area. The conditions noted are these: MPTP mice; brimonidine 3 mg/kg/day.
The target in the next series is alpha 2C receptor (Homo sapiens, UniProt P18825). Kind of series: cell-based. An excerpt:
(§1) In contrast, a method for measuring alpha receptor agonist selectivity comprises the RSAT (Receptor Selection and Amplification Technology) assay as reported in Messier et al., High Throughput Assays Of Cloned Adrenergic, Muscarinic, Neurokinin And Neurotrophin Receptors In Living Mammalian Cells, Pharmacol. Toxicol. 76:308-11 (1995) and has been adapted for use with alpha 2 receptors. This publication is incorporated by reference herein. The assay measures a receptor-mediated loss of contact inhibition that results in selective proliferation of receptor-containing cells in a mixed population of confluent cells. The increase in cell number is assessed with an appropriate transfected marker gene such as b-galactosidase, the activity of which can be easily measured in a 96-well format. Receptors that activate the G protein, Gq, elicit this response. Alpha2 receptors, which normally couple to Gi, activate the RSAT response when coexpressed with a hybrid Gq protein that has a Gi receptor recognition domain, called Gq/i5^2. See Conklin et al., Substitution Of Three Amino Acids Switches Receptor Specificity Of Gqa To That Of Gia, Nature 363:274-6. (1993) This reference is hereby incorporated by reference herein.
(§2) The data presented below was collected using the RSAT assay described above.
(§3) Efficacy of a given receptor or receptor subtype in accordance with the present invention is determined using the RSAT assay procedure described above.

A further series has as its target alpha 2B receptor (Homo sapiens, UniProt P18089). The series is described as follows: cell-based.
Excerpt: as §1, §2, §3

For series [4] the following is noted: in vivo, ip.

Regarding `Brc1c(NC2=NCCN2)ccc2nccnc12` [Brimonidine, brimonidine], the “neuron loss in the substantia nigra versus MPTP-treated animals” value in series [1] (MPTP mice, brimonidine 3 mg/kg/day) is “significantly less neuron loss”. For the same compound, in series [1] (substantia nigra, TH-labeled neurons, 55-60 days post MPTP 40 mg/kg sc, brimonidine 3 mg/kg/day sc mini-pump 14 days), the “Average Neuron Count (statistical error)” value is listed as 32 (±1). In addition, the “Open Field activity versus vehicle + MPTP group” value in series [2] (10 and 30 days post MPTP, brimonidine 3 mg/kg/day) was “no significant difference between this group and the vehicle group”. For the same compound, the “forelimb extension impairment, tail hang test” value in series [2] (during the period that the compound is administered) was “does not reduce this impairment”; in series [2] (post-dosing (after 14 days of compound administration)), “does tend to reduce the impairment”. For the same compound, the “greater activity at each alpha 2 receptor subtype than at the alpha 1A receptor” value at alpha 1A receptor is reported as “at least 5.5 fold”. For the same compound, in series [3], the “reduction of MPTP-induced neuron loss in the Ventral Tegmental area” value was “about 10%”.

Take `Cc1cccc([C@H](C)c2cnc[nH]2)c1C` [Dexmedetomidine, dexmedetomidine]: the EC50 (commonly the concentration needed to bring the measured effect to its halfway point) worked out at 0.001 µM on alpha 2C receptor and 0.002 µM on alpha 2B receptor.

`Clc1ccc2nsnc2c1NC1=NCCN1` [Tizanidine, tizanidine]: the figures for the EC50 on alpha 2C receptor and at alpha 2B receptor were 1.69 µM and 0.127 µM, respectively. The “concentration at which sedative effect first becomes noticeable” value in series [4] is “about 100 micrograms/kg”.
